Experimental data reported in patent US8846570B2, “Herbicidal compositions comprising 4-amino-3-chloro-5-fluoro-6-(4-chloro-2-fluoro-3-methoxyphenyl)pyridine-2-carboxylic acid or a derivative thereof and microtubule inhibiting herbicides” (Dow AgroSciences LLC, priority 2012, dated 2014).

What was measured:
[1] = system: Ipomoea hederacea (L.) Jacq. (IPOHE); experiment: Pre-emergence soil-applied, greenhouse: visual weed control; type: in vivo; details: for Visual Weed Control (%) - 33 DAA IPOHE Obs: soil-applied pre-emergence
Text: Seeds or nutlets of the desired test plant species were planted in a soil matrix prepared by mixing a loam soil (e.g., 32 percent silt, 23 percent clay, and 45 percent sand, with a pH of about 6.5 and an organic matter content of about 1.9 percent) and calcareous grit in an 80 to 20 ratio. The soil matrix was contained in plastic pots with a volume of 1 quart and a surface area of 83.6 square centimeters (cm^2).
Forms of compound A were applied on an acid equivalent basis.
(§1) For treatments comprised of formulated compounds, measured amounts of compounds were placed individually in 25 mL glass vials and diluted in a volume of 1.25% (v/v) Agri-Dex® crop oil concentrate (COC) to obtain 12× stock solutions. […] Application solutions were prepared by adding an appropriate amount of each stock solution (e.g., 1 mL) and diluted to the appropriate final concentrations with the addition of 10 mL of an aqueous mixture of 1.25% (v/v) COC so that the final spray solutions contained 1.25% (v/v) COC.
For treatments comprised of formulated and technical compounds, weighed amounts of the technical materials were placed individually in 25 mL glass vials and dissolved in a volume of 97:3 (v/v) acetone/DMSO to obtain 12× stock solutions, and measured amounts of the formulated compounds were placed individually in 25 mL glass vials and diluted in a volume of 1.5% (v/v) COC or water to obtain 12× stock solutions. […] Application solutions were prepared by adding an appropriate amount of each stock solution (e.g., 1 mL) and diluted to the appropriate final concentrations with the addition of an appropriate amount of an aqueous mixture of 1.5% (v/v) COC so that the final spray solutions contained 1.25% (v/v) COC. As required, additional water and/or 97:3 (v/v) acetone/DMSO was added to individual application solutions so that the final acetone and DMSO concentrations of the application solutions being compared were 8.1% and 0.25%, respectively.
All stock solutions and applications solutions were visually inspected for compound compatibility prior to application. Spray solutions were applied to the soil with an overhead Mandel track sprayer equipped with a 8002E nozzles calibrated to deliver 187 L/ha over an application area of 0.503 m^2 at a spray height of 18 inches (46 cm) above average pot height. Control pots were sprayed in the same manner with the solvent blank.
The treated and control pots were placed in a greenhouse and top watered as needed. […] The pots were maintained in a greenhouse with an approximate 14 hr photoperiod which was maintained at about 29° C. during the day and 26° C. during the night. Nutrients (Peters® Excel 15-5-15 5-Ca 2-Mg) were applied in the irrigation solution as needed and water was added on a regular basis. Supplemental lighting was provided with overhead metal halide 1000-Watt lamps as necessary. After approximately 4 weeks, the condition of the test plants as compared with that of the untreated plants was determined visually and scored on a scale of 0 to 100 percent where 0 corresponds to no injury or growth inhibition and 100 corresponds to complete kill.
(§2) Colby's equation was used to determine the herbicidal effects expected from the mixtures (Colby, S. R. 1967. Calculation of the synergistic and antagonistic response of herbicide combinations. Weeds 15:20-22.).
(§3) The following equation was used to calculate the expected activity of mixtures containing two active ingredients, A and B: Expected=A+B−(A×B/100)

[2] = system: Leptochloa chinensis (L.) Nees (LEFCH); experiment: Postemergence foliar-applied, direct seeded rice, greenhouse: visual weed control; type: in vivo; details: 19 DAA
Text: Seeds or nutlets of the desired test plant species were planted in a soil matrix prepared by mixing a loam or sandy loam soil (e.g., 28.6 percent silt, 18.8 percent clay, and 52.6 percent sand, with a pH of about 5.8 and an organic matter content of about 1.8 percent) and calcareous grit in an 80 to 20 ratio. The soil matrix was contained in plastic pots with a volume of 1 quart and a surface area of 83.6 cm^2. When required to ensure good germination and healthy plants, a fungicide treatment and/or other chemical or physical treatment was applied. The plants were grown for 8-22 days in a greenhouse with an approximate 14 h photoperiod which was maintained at about 29° C. during the day and 26° C. during the night. Nutrients (Peters Excel® 15-5-15 5-Ca 2-Mg and iron chelate) were applied in the irrigation solution as needed and water was added on a regular basis. Supplemental lighting was provided with overhead metal halide 1000-Watt lamps as necessary. The plants were employed for testing when they reached the first through fourth true leaf stage.
Treatments consisted of the acid or esters of 4-amino-3-chloro-5-fluoro-6-(4-chloro-2-fluoro-3-methoxy-phenyl)pyridine-2-carboxylic acid (Compound A), each formulated as an SC (suspension concentrate), and various herbicidal components alone and in combination. Forms of compound A were applied on an acid equivalent basis.
Treatment requirements were calculated based upon the rates being tested, the concentration of active ingredient or acid equivalent in the formulation, and a 12 mL application volume at a rate of 187 L/ha.
as §1, with “oil concentrated” for “oil concentrate (COC)”, “(v/v) crop oil concentrate” for “(v/v) COC”, “contained 1.25+/−0.05%” for “contained 1.25%”, “(v/v) crop oil concentrate.” for “(v/v) COC.”
As required, additional water and/or 97:3 v/v acetone/DMSO was added to individual application solutions so that the final acetone and DMSO concentrations of the application solutions being compared were 8.1% and 0.25%, respectively.
All stock solutions and applications solutions were visually inspected for compound compatibility prior to application. Spray solutions were applied to the plant material with an overhead Mandel track sprayer equipped with a 8002E nozzles calibrated to deliver 187 L/ha over an application area of 0.503 m^2 at a spray height of 18 to 20 inches (46 to 50 cm) above average plant canopy height. Control plants were sprayed in the same manner with the solvent blank.
The treated plants and control plants were placed in a greenhouse as described above and watered by sub-irrigation to prevent wash-off of the test compounds. After approximately 3 weeks, the condition of the test plants as compared with that of the untreated plants was determined visually and scored on a scale of 0 to 100 percent where 0 corresponds to no injury or growth inhibition and 100 corresponds to complete kill.
as §2, §3

COc1c(Cl)ccc(-c2nc(C(=O)OCc3ccccc3)c(Cl)c(N)c2F)c1F [Compound A Benzyl Ester, benzyl ester of 4-amino-3-chloro-5-fluoro-6-(4-chloro-2-fluoro-3-methoxy-phenyl)pyridine-2-carboxylic acid]
Visual Weed Control (%) Obs ([1]; 27 DAA, 16 g ae/ha): 20%
Visual Weed Control (%) Obs ([1]; 27 DAA, 32 g ae/ha): 40%
Visual Weed Control (%) Obs ([1]; 33 DAA, 16 g ae/ha): 0%
Visual Weed Control (%) Obs ([1]; 33 DAA, 32 g ae/ha): 5%
Visual Weed Control (%) - 33 DAA IPOHE Obs ([1]; Compound A Benzyl Ester 16 g ae/ha alone, 33 DAA): 0%
Visual Weed Control (%) - 33 DAA IPOHE Obs ([1]; Compound A Benzyl Ester 32 g ae/ha alone, 33 DAA): 5%
Visual Weed Control (%) Obs ([2]; 4.38 g ae/ha): 0%
Visual Weed Control (%) Obs ([2]; 8.75 g ae/ha): 25%
Visual Weed Control (%) Obs ([2]; 17.5 g ae/ha): 30%

CCC(CC)Nc1c([N+](=O)[O-])cc(C)c(C)c1[N+](=O)[O-] [Pendimethalin, N-(1-ethylpropyl)-3,4-dimethyl-2,6-dinitrobenzenamine, reference compound]
Visual Weed Control (%) Obs ([2]; 140 g ai/ha): 0%
Visual Weed Control (%) Obs ([2]; 280 g ai/ha): 20%
Visual Weed Control (%) Obs ([2]; 560 g ai/ha): 80%

CSC(=O)c1c(C(F)F)nc(C(F)(F)F)c(C(=O)SC)c1CC(C)C [Dithiopyr, S,S′-dimethyl-2-(difluoromethyl)-4-(2-methylpropyl)-6-(trifluoromethyl)-3,5-pyridinedicarbothioate]
Visual Weed Control (%) Obs ([1]; 27 DAA, 140 g ai/ha): 3%
Visual Weed Control (%) Obs ([1]; 27 DAA, 280 g ai/ha): 20%
